Here are results for three molecules from PMC6900558 (Acta Pharmaceutica Sinica. B, 2019).

Each structure is given as a SMILES string. Like-named read-outs stand apart in the source and are kept apart here.

Data set [1] concerns the target guinea pig σ2 receptor. To be noted: read-out: σ2R Ki; cited from earlier work.
For data set [2], the target named is T1, guinea pig σ1 receptor (Cavia porcellus, UniProt Q60492). The following applies: read-out: σ1R Kd or Ki; Kd or Ki not specified; cited from earlier work.
Data set [3] deals with T2, σ1R (Mus musculus, UniProt O55242). The data set is described as follows: In vivo PET-CT imaging with [^11C]HCC0929 in mice brain. Details: species or system mice (BALB/c).
Data set [4] addresses T1, guinea pig σ1 receptor. The data set is described as follows: Ex vivo σ1 receptor binding assay. The following applies: for Selectivity (σ2R/σ1R): ratio of σ2R Ki to σ1R Ki.
Data set [5] can be described thus: Experimental logD. The following applies: PBS (aqueous phase; partition solvent not stated), pH 7.4. Type of data set: physicochemical.
Data set [6] has as its target T2, σ1R. The data set is described as follows: In vivo PET-CT imaging with [^11C]HCC0923 in mice brain. Details: species or system mice (BALB/c). The following applies: self-blocking, 12.5 mg/kg i.v. 5 min before tracer.

T1 sequence (Q60492 whole entry): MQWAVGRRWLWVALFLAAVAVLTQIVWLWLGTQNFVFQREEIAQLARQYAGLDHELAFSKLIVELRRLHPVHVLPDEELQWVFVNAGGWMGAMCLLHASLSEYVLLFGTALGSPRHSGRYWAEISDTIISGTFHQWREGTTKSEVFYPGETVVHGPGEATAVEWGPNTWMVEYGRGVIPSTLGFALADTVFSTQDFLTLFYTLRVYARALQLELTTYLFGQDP
T2 sequence (O55242 whole entry): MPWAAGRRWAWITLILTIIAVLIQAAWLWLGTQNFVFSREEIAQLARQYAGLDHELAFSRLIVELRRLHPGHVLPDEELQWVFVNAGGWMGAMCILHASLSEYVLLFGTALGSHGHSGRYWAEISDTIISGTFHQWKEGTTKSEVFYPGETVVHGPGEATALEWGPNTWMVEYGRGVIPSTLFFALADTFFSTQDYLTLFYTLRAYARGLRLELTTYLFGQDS

For `CCCN1CCC=C(c2cc(-c3ccc(C)cc3)no2)C1` [PD 144418], the Ki in data set [1] was 1380 ± 179 nM; in data set [2], 4.3 ± 0.1 nM. For the same molecule, the “reduction of [^11C]HCC0929 binding in mice brain” value in data set [3] (pretreatment 2.99 mg/kg i.v., change between peak at ∼5 min and lowest at 60 min) is about 67%.
On to `COc1ccc(-n2nc(OCCCN3CCCCC3)ccc2=O)cc1` [compound 13, 2-(4-Methoxyphenyl)-6-(3-(piperidin-1-yl)propoxy)pyridazin-3(2H)-one], for which, in data set [4], the affinity corresponds to a Ki of 10.3 ± 1.1 nM and the “Selectivity (σ2R/σ1R)” value was 111.3. Further, the logD in data set [5] came to 0.89 ± 0.06. Further, in data set [6], the “reduction in [^11C]HCC0923 brain uptake” value is given as about 54%.
`CN1CCN(CCCOc2ccc(=O)n(-c3ccc(Cl)c(Cl)c3)n2)CC1` [compound 15, 2-(3,4-Dichlorophenyl)-6-(3-(4-methylpiperazin-1-yl)propoxy)pyridazin-3(2H)-one]: in data set [4], the Ki turned out to be 5.6 ± 0.7 nM and the “Selectivity (σ2R/σ1R)” value was 272.8. In data set [5], this molecule yielded a pH-dependent lipophilicity (logD) of 1.73 ± 0.08. For the same molecule, the “reduction in [^11C]HCC0929 mice brain uptake” value in data set [3] (self-blocking, 2.88 mg/kg i.v. 5 min before tracer) is recorded as about 58%.

As a reminder, the Ki is a measure of affinity in units of concentration, obtained from inhibition or displacement. Usually logD stands for lipophilicity at a set pH, counting ionised and neutral species. High values mean a more lipophilic compound, low ones a more hydrophilic compound.
